Measured values: PubChem BioAssay (NCI)
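96-well plates; 48 h exposure; 5 concentrations. Endpoints by linear interpolation between flanking doses. Not reached: highest tested concentration assigned. Here, GI50 denotes the concentration required for 50% inhibition of growth. TGI: concentration producing complete growth inhibition.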

How the values were obtained:
Test in all cases: NCI-60 cell line screen, 48 h
[1] = test system: MALME-3M melanoma
[2] = test system: OVCAR-8 ovarian
[3] = test system: NCI-H460 lung
[4] = test system: RPMI-8226 leukemia
[5] = test system: SF-539 CNS
[6] = test system: KM12 colon
[7] = test system: UACC-257 melanoma
[8] = test system: SK-MEL-5 melanoma
[9] = test system: MDA-MB-231 breast
[10] = test system: MDA-MB-435

| SMILES | TGI [1] | TGI [2] | TGI [3] | TGI [4] | TGI [5] | TGI [6] | TGI [7] | TGI [8] | GI50 [2] | GI50 [9] | TGI [9] | GI50 [3] | GI50 [10] | TGI [10] | GI50 [6] | GI50 [7] | GI50 [8] | GI50 [1] | GI50 [4] | GI50 [5] |
| --- | --- | --- | --- | --- | --- | --- | --- | --- | --- | --- | --- | --- | --- | --- | --- | --- | --- | --- | --- | --- |
| COC1CC(OS(=O)(=O)c2ccc(C)cc2)C(OS(=O)(=O)c2ccc(C)cc2)C(COS(=O)(=O)c2ccc(C)cc2)O1 (stereo not drawn) | 8.57 µM | 6.06 µM | 24.7 µM | 86 µM | 6.65 µM | > 100 µM | 21 µM | 25.7 µM | – | – | – | – | – | – | – | – | – | – | – | – |
| NC(=NC1CCCCCC1)c1ccc(N2CCN(c3ccc(C(N)=NC4CCCCCC4)cc3)CC2)cc1 | – | > 50 µM | 16.8 µM | – | – | 30.2 µM | > 50 µM | 6.76 µM | 9 µM | 8.39 µM | 29 µM | 3.65 µM | 7.85 µM | 26.1 µM | 8.35 µM | 9.75 µM | 1.33 µM | – | – | – |
| CC[O-].CC[O-].O=Nc1ccc2cc([O-])ccc2c1.O=Nc1ccc2cc([O-])ccc2c1.[Ti+4] | 3.06 µM | 3.28 µM | > 100 µM | 4.6 µM | 3.28 µM | 4.65 µM | 3.14 µM | – | 1.47 µM | – | – | 3.1 µM | – | – | 1.94 µM | 1.61 µM | – | 1.69 µM | 1.51 µM | 1.82 µM |
| N#CC1(c2nc3ccccc3o2)C(=O)C(=O)N(c2ccc(Cl)c(Cl)c2)C(=O)C1=O | > 100 µM | > 100 µM | > 100 µM | > 100 µM | – | > 100 µM | > 100 µM | > 100 µM | – | – | – | – | – | – | – | – | – | – | – | – |
| CNS(=O)(=O)NN(C)S(=O)(=O)c1ccc(Br)cc1 | > 100 µM | > 100 µM | – | > 100 µM | > 100 µM | > 100 µM | > 100 µM | > 100 µM | – | – | – | – | – | – | – | – | – | – | – | – |
| COc1ccc(C(=O)/C=C/c2cc(C(=O)c3cc(OC)c(OC)c(OC)c3)ccc2OC)cc1 | – | > 100 µM | – | – | – | – | – | – | 4.61 µM | 3.69 µM | > 100 µM | – | – | – | – | – | – | – | – | – |
| CC(C)(C)C(=O)C(c1ccc(-c2cscn2)cc1)c1ccc(-c2cscn2)cc1 | > 100 µM | > 100 µM | > 100 µM | > 100 µM | > 56.3 µM | > 100 µM | > 100 µM | > 100 µM | – | – | – | – | – | – | – | – | – | – | – | – |
| Cc1ccc(NC2=C(Sc3ccc(Cl)cc3)C(=O)N(Cc3ccccc3)C2=O)cc1Cl | – | 34.8 µM | 39.8 µM | 40.8 µM | 16.9 µM | > 100 µM | 30.3 µM | 20.3 µM | 3.98 µM | 3.84 µM | 14.7 µM | 5.75 µM | 22 µM | > 100 µM | 31.1 µM | 7.37 µM | 5.84 µM | – | 12.7 µM | 3.45 µM |
| COc1cc2c(cc1OC)[C@@H](C(O)c1ccccc1)NCC2 (stereo partly drawn) | > 100 µM | > 100 µM | > 100 µM | – | > 100 µM | > 100 µM | > 100 µM | > 100 µM | – | – | – | – | – | – | – | – | – | – | – | – |
| Cc1nn2c(/C=C3/C(=O)Nc4ccccc43)c(-c3ccc(Cl)cc3)nc2s1 | – | > 50 µM | > 50 µM | > 50 µM | 1.27 µM | > 50 µM | > 50 µM | > 50 µM | 31.9 µM | 7.05 µM | 21.3 µM | 22.1 µM | 39.5 µM | > 50 µM | 16.5 µM | 37.3 µM | 26.3 µM | – | 4.37 µM | 0.0174 µM |
| CCc1nc2ccc(Cc3ccc(C(=O)NO)cc3)cc2c(=O)n1CCc1ccccc1 | 2.1 µM | 4.16 µM | 2.07 µM | 10.3 µM | 3.65 µM | – | 2.47 µM | 2.1 µM | 0.584 µM | 1.31 µM | 3.98 µM | 0.52 µM | – | – | – | 0.64 µM | 0.822 µM | 0.586 µM | 1.07 µM | 1.46 µM |
| CCCCC(=O)[O-].N.N.N.N.N.[Co+3].[O-][Cl+3]([O-])([O-])[O-] | > 100 µM | > 100 µM | > 100 µM | > 100 µM | > 100 µM | > 100 µM | > 100 µM | > 100 µM | > 100 µM | – | – | > 100 µM | – | – | > 100 µM | > 100 µM | > 100 µM | > 100 µM | > 100 µM | > 100 µM |
| Cc1c(Cl)cccc1NC(=O)c1sc2nc3c(cc2c1N)CCCCCC3 | – | > 50 µM | > 50 µM | > 50 µM | 7.93 µM | > 50 µM | – | 10.5 µM | 0.286 µM | 0.356 µM | > 50 µM | 0.187 µM | 0.0761 µM | 0.251 µM | 0.197 µM | – | 0.177 µM | – | 0.166 µM | 0.168 µM |
| CC(=O)OC[C@@H]1[C@H]2CC(=O)O[C@H]2C[C@H]1OC(C)=O | > 100 µM | > 100 µM | > 100 µM | > 100 µM | > 100 µM | > 100 µM | > 100 µM | > 100 µM | – | – | – | – | – | – | – | – | – | – | – | – |
| O=C(Nc1nccs1)c1cc(C2=CC=CC([N+](=O)[O-])C=C2)nc(=S)[nH]1 (stereo not drawn) | > 100 µM | > 100 µM | > 100 µM | > 100 µM | > 100 µM | > 100 µM | > 100 µM | > 100 µM | – | – | – | – | – | – | – | – | – | – | – | – |
| Cc1c(C(=O)CC(=O)C(=O)Nc2cccc(C(F)(F)F)c2)[n+](=O)c2ccccc2n1[O-] | 13.3 µM | 6.34 µM | 8.5 µM | 11.7 µM | 8.58 µM | 21.7 µM | 6.73 µM | 14 µM | – | – | – | – | – | – | – | – | – | – | – | – |
| CCN(CC)C(=S)N/N=C(\C)c1ccccc1O | > 100 µM | > 100 µM | 97.4 µM | > 100 µM | 54.4 µM | > 100 µM | > 100 µM | 51.9 µM | – | – | – | – | – | – | – | – | – | – | – | – |
| CN(C)c1ccc(/C=C2\N=C(c3ccc(N)cc3)OC2=O)cc1 | > 100 µM | > 100 µM | > 100 µM | > 100 µM | > 100 µM | > 100 µM | > 100 µM | > 100 µM | – | – | – | – | – | – | – | – | – | – | – | – |
| Cc1nc(Nc2ccc(F)c(Cl)c2)sc1C(=O)O | 3.71 µM | 4.82 µM | 4.74 µM | 6.22 µM | 3.07 µM | – | 3.36 µM | 2.82 µM | 2.14 µM | – | – | 2.07 µM | 2.13 µM | 5.25 µM | – | 1.78 µM | 1.48 µM | 1.65 µM | 2.16 µM | 1.58 µM |
| CN(C)CCCn1c2c3ccccc3ccc2c2oc(=O)c3ccccc3c21 | 29.8 µM | 8.75 µM | 6.64 µM | 14 µM | 7.82 µM | 10.3 µM | 19.1 µM | 23.6 µM | – | – | – | – | – | > 20 µM | – | – | – | – | – | – |
